According to patent US8552064B2, “Suramin and derivatives thereof as topical microbicide and contraceptive” (Eastern Virginia Medical School, priority 2005, dated 2013):
Converted amounts (≈) assume the structure as drawn.

Legend:
[1] = test system: rabbit sperm; test: Rabbit contraceptive efficacy, ex-vivo sperm mixing; assay type: in vivo; details: for inhibition of pregnancy rates (PR): 1 mM (1.4 mg/mL), Table 6: 0.1% (~1 mM); for Implantation Sites (Mean ± SD): 11 days post-insemination
Description: Semen was collected from New Zealand White (NZW) male rabbits with the aid of an artifical vagina, pooled and adjusted with a modified Tyrode's albumin lactate pyruvate (TALP) medium to 50 million motile sperm per milliliter. Ovulation was induced in females by injection of 200 IU of human chorionic gonadotropin (hCG) intravenously. Under the ex-vivo (in-vitro) mixing protocol, sperm were incubated with indicated suramin test compounds in a tube for 15 minutes at 37° C. prior to insemination (0.5 mL) as described in Anderson R. A., et al. J. Androl., 21: 862-875 (2000). […] Sperm-compound contact, in this case, took place in vivo, inside the vagina. Insemination and administration of the compound was performed with a flexible, 12 cm long polyurethane catheter. The main endpoints for both protocols were the number of implantation sites counted 11 days after insemination and pregnancy rate. Such sites were counted by visual inspection of the tubes.

[2] = test system: HSV-2; test: HSV plaque assay, HSV-2; assay type: cell-based, HSV (type 2 strain 333)
Description: Evaluation of anti-HSV activity of suramin was based on the method described by Herold et al., J. Virol., 70: 3461-3469 (1996). The compound was serially diluted (1000 μg/ml to 1.0 μg/ml) in phosphate-buffered saline (PBS), and each dilution was mixed with each of two serial dilutions (10^−5 and 10^−6) HSV (type 2 strain 333). Working viral titers were […]. Samples (1 ml) of each mixture were plated in duplicate on washed and drained confluent monolayers of CaSki cells (a human cervical epithelial cell line, obtained from the American Type Culture Collection, Rockville, Md.) on the bottoms of 25 cm^2 flasks. Initial titer (indicated in the control cultures with no added test agent) in each culture was given as pfu/ml. The flasks were incubated for 2 hours, after which the medium (containing virus and test compound) was removed and the cells were washed with PBS. Cells were cultured for 3 days in medium 199, supplemented with 1% serum and 0.5% methyl cellulose that contained anti-HSV antibodies to prevent the formation of secondary plaques. Cells were stained with Giemsa for the counting of viral plaques by phase contrast microscopy. The viral titer was inferred from the number of plaques, after correction for dilutions. Values were corrected to a control titer 5×10^8 pfu/ml. Data were expressed as viral titer and as the percentage of plaques that are counted in control cell cultures (not exposed to test agent). […] The concentration of the compound that was required to reduce the viral titer by 50% (IC50) was estimated with curve-fitting software (TableCurve 2D, version 3.02) from plots of plaque-forming units (pfu) per ml as a function of concentration of the compound.

Cc1ccc(C(=O)Nc2ccc(S(=O)(=O)O)c3cc(S(=O)(=O)O)cc(S(=O)(=O)O)c23)cc1NC(=O)c1cccc(NC(=O)Nc2cccc(C(=O)Nc3cc(C(=O)Nc4ccc(S(=O)(=O)O)c5cc(S(=O)(=O)O)cc(S(=O)(=O)O)c45)ccc3C)c2)c1 [Suramin, 8,8′-(carbonylbis(imino-3,1-phenylenecarbonylimino(4-methyl-3,1-phenylene)carbonylimino))bis-1,3,5-naphthalene trisulfonic acid]
effect on PR ([1]; 0.1 mg/mL): did not significantly reduce PR | inhibition of pregnancy rates (PR) [1]: 86% inhibition | inhibition of pregnancy rates (PR) ([1]; listed as suramin sodium): 86% | inhibition, rabbit pretreated sperm ([1]; 5% in KY Jelly (Table 6)): 100% inhibition | prevention of pregnancies ([1]; five percent (5%) concentration): completely prevented pregnancies | Potency, Contraception, rabbit pretreated sperm (In-vitro mixing) ([1]; rabbit, in vivo): Moderate | Pregnancy Rate (%) ([1]; suramin 0.1 mg/ml): 83% | Implantation Sites (Mean ± SD) ([1]; suramin 0.1 mg/ml): 4.4 ± 0.8 | Implantation Sites (Mean ± SD) ([1]; suramin 0.1 mg/ml, listed as suramin sodium): 4.4±0.8 | Number of Pregnant Females/Total ([1]; suramin 0.1 mg/ml, sperm mixed 15 min before insemination): 5/6 | Pregnancy Rate (%) ([1]; suramin 1.4 mg/ml): 14% | Number of Pregnant Females/Total ([1]; suramin 1.4 mg/ml (1 mM)): 1/7 | Implantation Sites (Mean ± SD) ([1]; suramin 1.4 mg/ml): 1 | Pregnancy Rate (%) ([1]; suramin 50 mg/ml): 0% | Number of Pregnant Females/Total ([1]; suramin 50 mg/ml (5%)): 0/7 | Potency, HSV-2 Plaque [2]: High | inhibition at 100 µg/mL ([2]; Human alphaherpesvirus 2, 100 μg/mL, read-out: inhibition of viral infectivity, plaque assay): 100% | IC50 ([2]; Human alphaherpesvirus 2, read-out: IC50 against HSV-2): 1 µg/mL (≈ 0.771 µM)
